# Tested on: 324938-238-R-J1-PDC complex spheroid growth, % test/control
# Assay: Anticancer human tumor 324938-238-R-J1-PDC patient-derived bladder carcinoma cell line growth inhibition [AhR]
# Conditions: for IC50: curve of first compound; for viability, T/C: stronger effect = lower value
# Text: Multicellular complex tumor spheroid response to aryl hydrocarbon receptor antagonists in combination with a variety of drugs and investigational agents in selected tumor cell lines
# The current study was undertaken to assess response to aryl hydrocarbon receptor antagonists in combination with standard-of-care drugs and investigational agents in solid tumor complex spheroid models. Complex spheroids include a stromal component modeled by human endothelial cells (HUVEC) and fibroblasts modeled by human mesenchymal stem cells (MSCs). The concentration ranges selected for each drug and investigational agent were based upon clinically achievable concentrations if the clinical Cmax of the agent was known.
# Compounds. The drugs and investigational agents: BAY 2416964 (NSC825713), GNF351 (NSC835774), CH-223191 (NSC835775), CPI-455 (NSC825282), aza-TdCyd (NSC777586), decitabine (NSC127716), belinostat (NSC758774), entinostat (NSC756642), pevonedistat (NSC761192), tazemetostat (NSC777109), talazoparib (NSC765396), olaparib (NSC753686), selinexor (NSC780203), nedisertib (M3814, NSC802822), bortezomib (NSC756655), venetoclax (NSC766270), doxorubicin (NSC123127), elimusertib (BAY189344, NSC800525), ceralasertib (AZD6738, NSC777638), TAK-243 (NSC785004), alisertib (NSC759677), etoposide (NSC141540), topotecan (NSC609699), eribulin (NSC707389), gemcitabine (NSC613327), carboplatin (NSC241240), cisplatin (NSC119875), and SN-38 (NSC673596) were obtained from the National Cancer Institute (NCI) Developmental Therapeutics Program Chemical Repository (32). The FDA-approved anticancer drug set is available from the Developmental Therapeutics Program at https://dtp.cancer.gov/organization/dscb/obtaining/available plates.htm. […] The stock solutions were prepared in dimethyl sulfoxide (DMSO, Sigma-Aldrich, St. Louis, MO, cat. D2650), except for the platinum compounds which were prepared in saline (Quality Biological, Gaithersburg, MD, cat. 114-055-101), at 800-fold the tested concentration and stored at -70 degrees C prior to their use. All drugs and investigational agents were tested over a range starting from a high concentration at or near the clinical Cmax and decreasing in half-log increments. If the clinical Cmax for an agent had not been determined, the highest concentration tested was 10 microM (Table 1).
# Cell Culture. All cells were maintained in an incubator at 37 degrees C and 5% CO2 with 95% humidity. The PDC lines were cultured according to standard operating procedures established by the NCI PDMR (https://pdmr.cancer.gov). Briefly, all PDCs were thawed and cultured in Matrigel-coated flasks prepared with a working solution of 1X Ham's F-12 nutrient mix, without supplementation (Invitrogen, Waltham, MA, cat. 11765054), 100 U/mL penicillin-streptomycin (Invitrogen, cat. 15140122), and 2.5% Matrigel (Corning Inc., Corning, NY, cat. 354248) for the first three passages. All PDCs were cultured in complete DMEM/F-12 media containing advanced DMEM/F-12 (Invitrogen, cat. 12634028), 4.9% defined fetal bovine serum, heat inactivated (HyClone Laboratories Inc., Logan, UT, cat. SH30070.03HI), 389 ng/mL hydrocortisone (Sigma-Aldrich, cat. H4001), 9.7 ng/mL human EGF recombinant protein (Invitrogen, cat. PHG0313), 23.4 microg/mL adenine (Sigma-Aldrich, cat. A2786), 97.3 U/mL penicillin-streptomycin (Invitrogen, cat. 15140122), 1.9 mM L-glutamine (Invitrogen, cat. 25030081), and 9.7 microM Y-27632 dihydrochloride (Tocris Bioscience, Bristol, United Kingdom, cat. 1254). The PDCs were cultured in complete DMEM/F12 media without 10 microM Y-27632 dihydrochloride for at least two passages prior to the screen. The established cell lines NCI-H1341 and […] were cultured in DMEM/F-12, HEPES (Invitrogen, cat. 11330032), 5% defined fetal bovine serum (HyClone Laboratories Inc., cat. SH30070.03), ITS premix universal culture supplement [insulin (5 microg/mL), transferrin (5 microg/mL), and selenious acid (5 ng/mL)] […]
# [1] = second compound 0.1 µM, first compound 0.0316 µM
# [2] = second compound 0.1 µM, first compound 0.1 µM
# [3] = second compound 0.1 µM, first compound 0.316 µM
# [4] = second compound 0.1 µM, first compound 1 µM
# [5] = second compound 0.1 µM, first compound 3.16 µM
# [6] = second compound 0.1 µM, first compound 10 µM
# [7] = second compound 0.316 µM, first compound 0.0316 µM
# [8] = second compound 0.316 µM, first compound 0.1 µM
# [9] = second compound 0.316 µM, first compound 0.316 µM
# [10] = second compound 0.316 µM, first compound 1 µM
# [11] = second compound 0.316 µM, first compound 3.16 µM
# [12] = second compound 0.316 µM, first compound 10 µM
# [13] = second compound 1 µM, first compound 0.0316 µM
# [14] = second compound 1 µM, first compound 0.1 µM
# [15] = second compound 1 µM, first compound 0.316 µM
# [16] = second compound 1 µM, first compound 1 µM
# [17] = second compound 1 µM, first compound 3.16 µM
# [18] = second compound 1 µM, first compound 10 µM
# [19] = second compound 3.16 µM, first compound 0.0316 µM
# [20] = second compound 3.16 µM, first compound 0.1 µM
# [21] = second compound 3.16 µM, first compound 0.316 µM
# [22] = second compound 3.16 µM, first compound 1 µM
# [23] = second compound 3.16 µM, first compound 3.16 µM
# [24] = second compound 3.16 µM, first compound 10 µM
# [25] = second compound 10 µM, first compound 0.0316 µM
# [26] = second compound 10 µM, first compound 0.1 µM
# [27] = second compound 10 µM, first compound 0.316 µM
# [28] = second compound 10 µM, first compound 1 µM
# [29] = second compound 10 µM, first compound 3.16 µM
# [30] = second compound 10 µM, first compound 10 µM
# 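Also: spheroids exposed to agents for seven days before viability read.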
structure (smiles),measurement,setting,value
CCN(c1cc(-c2ccc(CN3CCOCC3)cc2)cc(C(=O)NCc2c(C)cc(C)[nH]c2=O)c1C)C1CCOCC1 + Cc1cncc(-c2nc(NCCc3c[nH]c4ccccc34)c3ncn(C(C)C)c3n2)c1,IC50,second compound 0.1 µM,> 3000 nM
same,IC50,second compound 0.316 µM,> 3000 nM
same,IC50,second compound 1 µM,> 3000 nM
same,IC50,second compound 3.16 µM,> 3000 nM
same,IC50,second compound 10 µM,< 9.49 nM
same,"viability, T/C","second compound 0.1 µM, first compound 0.00949 µM",106%
same,"viability, T/C","second compound 0.1 µM, first compound 0.03 µM",135%
same,"viability, T/C","second compound 0.1 µM, first compound 0.0949 µM",123%
same,"viability, T/C","second compound 0.1 µM, first compound 0.3 µM",104%
same,"viability, T/C","second compound 0.1 µM, first compound 0.949 µM",106%
same,"viability, T/C","second compound 0.1 µM, first compound 3 µM",156%
same,"viability, T/C","second compound 0.316 µM, first compound 0.00949 µM",94.5%
same,"viability, T/C","second compound 0.316 µM, first compound 0.03 µM",89.3%
same,"viability, T/C","second compound 0.316 µM, first compound 0.0949 µM",112%
same,"viability, T/C","second compound 0.316 µM, first compound 0.3 µM",105%
same,"viability, T/C","second compound 0.316 µM, first compound 0.949 µM",109%
same,"viability, T/C","second compound 0.316 µM, first compound 3 µM",112%
same,"viability, T/C","second compound 1 µM, first compound 0.00949 µM",83.9%
same,"viability, T/C","second compound 1 µM, first compound 0.03 µM",118%
same,"viability, T/C","second compound 1 µM, first compound 0.0949 µM",117%
same,"viability, T/C","second compound 1 µM, first compound 0.3 µM",109%
same,"viability, T/C","second compound 1 µM, first compound 0.949 µM",94%
same,"viability, T/C","second compound 1 µM, first compound 3 µM",108%
same,"viability, T/C","second compound 3.16 µM, first compound 0.00949 µM",102%
same,"viability, T/C","second compound 3.16 µM, first compound 0.03 µM",102%
same,"viability, T/C","second compound 3.16 µM, first compound 0.0949 µM",124%
same,"viability, T/C","second compound 3.16 µM, first compound 0.3 µM",86.3%
same,"viability, T/C","second compound 3.16 µM, first compound 0.949 µM",110%
same,"viability, T/C","second compound 3.16 µM, first compound 3 µM",93.8%
same,"viability, T/C","second compound 10 µM, first compound 0.00949 µM",12.1%
same,"viability, T/C","second compound 10 µM, first compound 0.03 µM",15.5%
same,"viability, T/C","second compound 10 µM, first compound 0.0949 µM",15.5%
same,"viability, T/C","second compound 10 µM, first compound 0.3 µM",17.9%
same,"viability, T/C","second compound 10 µM, first compound 0.949 µM",8.72%
same,"viability, T/C","second compound 10 µM, first compound 3 µM",7.72%
O=C(C=Cc1cccc(S(=O)(=O)Nc2ccccc2)c1)NO + Cc1ccccc1N=Nc1ccc(NC(=O)c2ccnn2C)c(C)c1,IC50,second compound 0.1 µM,3110 nM
same,IC50,second compound 0.316 µM,2790 nM
same,IC50,second compound 1 µM,3060 nM
same,IC50,second compound 3.16 µM,2570 nM
same,IC50,second compound 10 µM,2790 nM
same,"viability, T/C",[1],103%
same,"viability, T/C",[2],91.5%
same,"viability, T/C",[3],98.4%
same,"viability, T/C",[4],65.5%
same,"viability, T/C",[5],53.8%
same,"viability, T/C",[6],33.4%
same,"viability, T/C",[7],98%
same,"viability, T/C",[8],102%
same,"viability, T/C",[9],81.1%
same,"viability, T/C",[10],69%
same,"viability, T/C",[11],48.1%
same,"viability, T/C",[12],32.5%
same,"viability, T/C",[13],93.3%
same,"viability, T/C",[14],99.1%
same,"viability, T/C",[15],84.4%
same,"viability, T/C",[16],75.8%
same,"viability, T/C",[17],48.2%
same,"viability, T/C",[18],33.2%
same,"viability, T/C",[19],84.1%
same,"viability, T/C",[20],84.6%
same,"viability, T/C",[21],83.5%
same,"viability, T/C",[22],66.3%
same,"viability, T/C",[23],47.2%
same,"viability, T/C",[24],38.6%
same,"viability, T/C",[25],78.4%
same,"viability, T/C",[26],85.2%
same,"viability, T/C",[27],71.3%
same,"viability, T/C",[28],62.1%
same,"viability, T/C",[29],49.6%
same,"viability, T/C",[30],36.3%
COc1cc(C2c3cc4c(cc3C(OC3OC5COC(C)OC5C(O)C3O)C3COC(=O)C23)OCO4)cc(OC)c1O (stereo not given) + Cc1ccccc1N=Nc1ccc(NC(=O)c2ccnn2C)c(C)c1,IC50,second compound 0.1 µM,391 nM
same,IC50,second compound 0.316 µM,303 nM
same,IC50,second compound 1 µM,309 nM
same,IC50,second compound 3.16 µM,249 nM
same,IC50,second compound 10 µM,287 nM
same,"viability, T/C",[1],89.2%
same,"viability, T/C",[2],79.3%
same,"viability, T/C",[3],52.3%
same,"viability, T/C",[4],33.4%
same,"viability, T/C",[5],28%
same,"viability, T/C",[6],19.5%
same,"viability, T/C",[7],78.4%
same,"viability, T/C",[8],87.8%
same,"viability, T/C",[9],48.7%
same,"viability, T/C",[10],33%
same,"viability, T/C",[11],27%
same,"viability, T/C",[12],16.9%
same,"viability, T/C",[13],79.2%
same,"viability, T/C",[14],75.5%
same,"viability, T/C",[15],47.2%
same,"viability, T/C",[16],29.6%
same,"viability, T/C",[17],23.7%
same,"viability, T/C",[18],16.4%
same,"viability, T/C",[19],68.2%
same,"viability, T/C",[20],61.6%
same,"viability, T/C",[21],46.4%
same,"viability, T/C",[22],33.3%
same,"viability, T/C",[23],28%
same,"viability, T/C",[24],16%
same,"viability, T/C",[25],70.5%
same,"viability, T/C",[26],65.5%
same,"viability, T/C",[27],43.3%
same,"viability, T/C",[28],38.7%
same,"viability, T/C",[29],31.8%
same,"viability, T/C",[30],18.5%

# From PubChem BioAssay AID1918995 (Molecular Pharmacology Branch, DTP, NCI, 2023)
